Earlier results on one molecule are cited in patent US6608222B2, “Bioactive conjugated linoleic acid glycerides and method of use” (Alpha Food Ingredients, Inc., priority 2000, dated 2003).

Each structure is given as a SMILES string.

The subject of this data set is hamsters. The settings on record: feeding studies with hamsters; compared with a composite group of CLA-FFA isomers.

On to `CCCCCC/C=C/C=C\CCCCCCCC(=O)O` [purified c-9, t-11 CLA-FFA, cis-9, trans-11-octadecadienoic acid], for which the biological activity entry is “not so biologically active as a composite group of CLA-FFA isomers”.
